Data set [1] in a line: Oral bioavailability and biodistribution of pentamidine salts. To be noted: mice; for Tissue Concentration Kidney / Tissue Concentration Liver / Tissue Concentration Lung / Tissue Concentration Pancreas: 24 hours after PO 200 mg/kg; for Tissue Concentration Kidney / Tissue Concentration Liver / Tissue Concentration Lung / Tissue Concentration Pancreas / AUCINF / Cl/F / Cmax / MRT / Tmax / t½: 200 mg/kg; for F* / AUCINF / Cl/F / Cmax / MRT / Tmax / t½: oral 200 mg/kg; for F*: based on the iv AUC at 5 mg/kg of 19.08; for AUCINF / Cl/F / Cmax / MRT / Tmax / t½: blood. The protocol: In this experiment, HCl, isethionate and tosylate salts of pentamidine were administered orally to mice and their PK and tissue accumulations were compared.
PK parameters for pentamidine salt following oral administration of 200 mg/kg in mice.
Biodistribution of Pentamidine Salts in mice, 24 hours after PO administration of 200 mg/kg.

For data set [2], the system named is GalN/LPS-induced liver injury. The data set can be described thus: GalN/LPS fulminant liver injury survival study. Particulars: C57BL/6 mice; IP 30 minutes prior GalN/LPS; PENTAMIDINE 40 mpk, Decamidine 10 mpk. Type of data set: in vivo. The protocol:
In this experiment, the 8-hour survival rate for C57BL/6 mice is evaluated when treated or not with two different aromatic diamidines (pentamidine isethionate(C5) and decamidine isethionate (C10)). Both compounds were administered intraperitoneally at doses close to their MTD 30 minutes prior a GalN/LPS-induced liver injury.

Where a name gives a salt, the structure may show the parent alone.

In general, Cmax refers to the peak of the concentration-time curve. In general, MRT refers to the average time that molecules of a dose stay in the body. As a reminder, the Tmax is the time from dosing to the highest level. The term t½ denotes how long it takes for the measured level to halve. With `N=C(N)c1ccc(OCCCCCOc2ccc(C(=N)N)cc2)cc1` [HCl salt, pentamidine bis-HCl], in data set [1] (listed as Penta-HCL, bis-HCl), the “Tissue Concentration Kidney” value was determined as 156.3 µM, the “Tissue Concentration Liver” value turned out to be 224.6 µM, the “Tissue Concentration Lung” value worked out at 43.4 µM and the “Tissue Concentration Pancreas” value was 16.6 µM. In addition, in data set [1] (bis-HCl), the “F*” value is recorded as 20.7, the AUCINF was 158.1 µM·h, the Cl/F is 85 mL/min/kg and the Cmax was 5240 nM. Besides, in data set [1] (bis-HCl), the MRT came out at 136.0 h, the Tmax came to 2.67 h and the t½ was 90.8 h.

For the molecule `N=C(N)c1ccc(OCCCCCOc2ccc(C(=N)N)cc2)cc1` [Tosylate salt, pentamidine tosylate], in data set [1] (listed as Penta-Tos), the “Tissue Concentration Kidney” value came to 1.9 µM, the “Tissue Concentration Liver” value was 4.1 µM, the “Tissue Concentration Lung” value amounted to 0.5 µM and the “Tissue Concentration Pancreas” value is 0.5 µM. In addition, in data set [1], the “F*” value worked out at 2.3, the AUCINF came to 17.8 µM·h, the Cl/F came out at 440 mL/min/kg and the highest concentration (Cmax) stood at 430 nM. Further, in data set [1], the MRT was found to be 86.0 h, the time of peak concentration (Tmax) was 6.67 h and the t½ turned out to be 54.9 h.

Consider `N=C(N)c1ccc(OCCCCCCCCCCOc2ccc(C(=N)N)cc2)cc1` [Decamidine, decamidine isethionate], for which the 8-hour survival in data set [2] was determined as 100%.
